# Experimental data: US9260504B2, “N- and C-terminal substituted antagonistic analogs of GH-RH” (University of Miami, priority 2008, dated 2016)
# Marks after values point to notes of the source that are not given here.
# Key:
# [1] = system: rat anterior pituitary adenylate cyclase; conditions: cited from earlier work
# GH secretion = conditions: cited from earlier work
# [2] = system: PC-3 human hormone-independent prostate cancer; assay: PC-3 human prostate cancer xenografts in nude mice, Experiment 2; format: in vivo; conditions: for Inhibition (%): tumor growth after 2 weeks
# Description: (§1) Male nude mice were implanted s.c. with 3 mm^3 pieces of PC-3 human hormone-independent prostate cancer tissue on both flanks. When tumors reached a volume of approx. 50 mm^3, the mice were divided into 4 experimental groups with 8 to 10 animals in each group and received single daily injections for 35 days as follows: 1. Control (vehicle solution); 2. JMR-132 (10 μg/day s.c.); 3. Peptide 1109 (10 μg/day s.c.); 4. Peptide 11111 (10 μg/day s.c.); Tumor volumes were measured once a week. The experiment was ended on day 35 by sacrificing the mice under Isoflurane anesthesia. Resulting tumors were cleaned, weighed, and snap-frozen until further analyses. Statistical analyses of the measurement results were done by two-tailed t-test, p<0.05 being considered significant. Data are presented as the means±S.E.
# Experiment 2 was similar to Experiment 1. Experiment 2 was started when PC-3 tumors had grown to approximately 50 mm^3 in volume. At this time, the animals were divided into 5 experimental groups with 8 animals in each group, and received single daily injections for 14 days as follows: 1. Control (vehicle solution); 2. JMR-132 (10 μg/day s.c.); 3. Peptide 1109 (5 μg/day s.c.); 4. Peptide 11109 (5 μg/day s.c.); 5. Peptide 11109 (2 μg/day s.c.). Further details of Experiment 2 are the same as for Experiment 1
# [3] = system: H-460 human non-small cell lung cancer; assay: H-460 human non-SCLC xenografts in nude mice, Experiment 2; format: in vivo; conditions: 5 μg/day s.c.; for Tumor growth after 4 weeks (%): means±S.E.; for Inhibition (%): after 4 weeks
# Description: (§2) Male nude mice were implanted s.c. with 3 mm^3 pieces of H-460 human non-SCLC tumor tissue on both flanks. When tumors had grown to a mean volume of approximately 90 mm^3, the mice were randomly assigned into 12 experimental groups with 8 to 10 animals in each group and received single daily injections for 28 days as follows: 1. Control (vehicle solution); 2. JMR-132 (10 μg/day s.c.); 3. Peptide 11109 (5 μg/day s.c.); 4. Peptide 11113 (5 μg/day s.c.); 5. Peptide 11119 (5 μg/day s.c.); 6. Peptide 11209 (5 μg/day s.c.); 7. Peptide 11313 (5 μg/day s.c.); 8. Peptide 11408 (5 μg/day s.c.); 9. Peptide 11435 (5 μg/day s.c.); 10. Peptide 11459 (5 μg/day s.c.); 11. Peptide 11469 (5 μg/day s.c.); 12. Peptide 11491 (5 μg/day s.c.). Tumor volumes were measured once a week. The experiment was ended on day 28 by sacrificing the mice under Isoflurane anesthesia. Resulting tumors were cleaned, weighed, and snap-frozen until further analyses. Statistical analyses of the measurement results were done by two-tailed t-test, p<0.05 being considered significant. Data are presented as the means±S.E.
# [4] = system: PC-3 human hormone-independent prostate cancer; assay: PC-3 human prostate cancer xenografts in nude mice, Experiment 3; format: in vivo; conditions: 2 μg/day s.c., 28 days
# Description: Male nude mice were implanted s.c. with 3 mm^3 pieces of PC-3 human hormone-independent prostate cancer tissue on both flanks. When tumors reached a volume of approximately 50 mm^3, the mice were divided into 12 experimental groups with 8 to 10 animals in each group and received single daily injections for 28 days as follows: 1. Control (vehicle solution); 2. JMR-132 (10 μg/day s.c.); 3. Peptide 11113 (2 μg/day s.c.); 4. Peptide 11119 (2 μg/day s.c.); 5. Peptide 11209 (2 μg/day s.c.); 6. Peptide 11313 (2 μg/day s.c.); 7. Peptide 11408 (2 μg/day s.c.); 8. Peptide 11435 (2 μg/day s.c.); 9. Peptide 11457 (2 μg/day s.c.); 10. Peptide 11459 (2 μg/day s.c.); 11. Peptide 11469 (2 μg/day s.c.); 12. Peptide 11491 (2 μg/day s.c.).
# Tumor volumes were measured once a week. The experiment was ended on day 28 by sacrificing the mice under Isoflurane anesthesia. Resulting tumors were cleaned, weighed, and snap-frozen until further analyses. Statistical analyses of the measurement results were done by two-tailed t-test, p<0.05 being considered significant.
# [5] = system: Panc-1 human pancreatic cancer; assay: Panc-1 human pancreatic cancer xenografts in nude mice; format: in vivo; conditions: 10 μg/day s.c. for 36 days
# Description: Panc-1 cancers were transplanted s.c. into both flank areas of 60 female nude mice, and allowed to grow for 105 days before starting the treatment with GH-RH antagonists. The mice were randomly assigned into 3 experimental groups with 8 animals in each group and received single daily injections for 36 days as follows: 1. Control (vehicle solution); 2. JMR-132 (10 μg/day s.c.); 3. Peptide 11457 (10 μg/day s.c.). Tumor volumes were measured once a week. The experiment was ended on day 82 by sacrificing the mice under Isoflurane anesthesia. Resulting tumors were cleaned, weighed, and snap-frozen until further analyses. Statistical analyses of the measurement results were done by two-tailed t-test, p<0.05 being considered significant. Data are presented as the means±S.E.
# [6] = system: Human ovarian cancer SKOV3 cells; assay: SKOV3 ovarian cancer xenografts in nude mice; format: in vivo; conditions: 5 μg/day s.c.
# From the text: Human ovarian cancer SKOV3 cells growing exponentially were implanted info five female nude mice by subcutaneous (s.c.) injection of 10^7 cells in both flanks. Tumors That resulted after approximately 4 weeks in donor animals were then aseptically dissected and mechanically minced. Three mm^3 pieces of tumor tissue were transplanted subcutaneously into experimental animals with a trocar needle. When tumors reached an appropriate size (approximately 50 mm^3), mice were randomly divided into […]. The first was the control group, the second group was treated with daily s.c. injections of 5 μg P-11313, the third group was treated with daily s.c. injections of 5 μg P-11604, the fourth group was treated with daily s.c. injections of 5 μg P-11610. Tumor volume (length×width×height×0.5236) was measured every week and mean tumor volumes of each group were compared by Student's t-test. The study lasted 49 days. One week after end of treatment, mice were killed under anesthesia, tumors were snap frozen and stored at −70° C.
# [7] = system: PC-3 human hormone-independent prostate cancer; assay: PC-3 human prostate cancer xenografts in nude mice, Experiment 1; format: in vivo; conditions: 10 μg/day s.c., daily for 35 days; means±S.E.
# Description: as §1
# [8] = system: H-460 human non-small cell lung cancer; assay: H-460 human non-SCLC xenografts in nude mice, Experiment 1; format: in vivo; conditions: 10 μg/day s.c., 28 days; means±S.E.
# Description: as §2, with “4” for “12”, “with” for “with 8 to”, “1109 (10” for “11109 (5”, “11111 (10” for “11113 (5 μg/day s.c.); 5. Peptide 11119 (5 μg/day s.c.); 6. Peptide 11209 (5 μg/day s.c.); 7. Peptide 11313 (5 μg/day s.c.); 8. Peptide 11408 (5 μg/day s.c.); 9. Peptide 11435 (5 μg/day s.c.); 10. Peptide 11459 (5 μg/day s.c.); 11. Peptide 11469 (5 μg/day s.c.); 12. Peptide 11491 (5”
# pituitary receptors = target: T1, pituitary receptors (Homo sapiens, UniProt Q02643); conditions: biological activity on the pituitary; cited from earlier work
# T1 construct: host or cells: pituitary
# T1 sequence (Q02643 23-423): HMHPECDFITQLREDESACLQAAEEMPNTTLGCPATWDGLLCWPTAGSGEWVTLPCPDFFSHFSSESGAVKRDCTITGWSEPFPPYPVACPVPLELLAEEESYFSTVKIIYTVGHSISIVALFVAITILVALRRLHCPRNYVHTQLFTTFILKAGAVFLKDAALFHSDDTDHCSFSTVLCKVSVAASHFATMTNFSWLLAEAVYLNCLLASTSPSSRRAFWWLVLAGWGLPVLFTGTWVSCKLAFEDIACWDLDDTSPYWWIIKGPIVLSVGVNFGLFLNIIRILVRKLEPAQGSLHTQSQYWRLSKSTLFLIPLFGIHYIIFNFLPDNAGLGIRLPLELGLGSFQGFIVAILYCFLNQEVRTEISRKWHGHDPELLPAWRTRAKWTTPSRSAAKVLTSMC
substance,measurement,setting,value
"[Ac-Tyr^1,D-Arg^2]hGH-RH(1-29)NH2 [standard antagonist]",Effect on activation of adenylate cyclase by hGH-RH(1-29)NH2,[1],prevent the activation of rat anterior pituitary adenylate cyclase
same,Effect on GH levels,GH secretion; a patient with acromegaly,reduced GH levels
same,Effect on nocturnal GH secretion,"GH secretion; normal subjects, 400 μg/kg",eliminated nocturnal GH secretion
"[Dca^0-Tyr^1, D-Arg^2, Cpa^6, Ala^8, Har^9, Tyr(Me)^10, His^11, Abu^15, His^20, Nle^27, D-Arg^28, Har^29]hGH-RH(1-29)NH2 [Peptide 11109]",Tumor growth after 2 weeks (%),"[2]; 2 μg/day s.c., 14 days",318%
same,Tumor growth after 2 weeks (%),"[2]; 5 μg/day s.c., 14 days",217%
same,Inhibition of PC-3 tumor growth compared with reference peptide JMR-132,"[2]; Peptide 1109 5 μg/day, Peptide 11109 5 and 2 μg/day, JMR-132 10 μg/day, 14 days",inhibited the growth of PC-3 tumors more potently than reference peptide JMR-132
same,Inhibition (%),[2]; 2 μg/day s.c.,55.55%
same,Inhibition (%),[2]; 5 μg/day s.c.,69.68%
same,Effect on the growth of H-460 lung cancers in vivo,[3]; 28 days,had no effect
same,Tumor growth after 4 weeks (%),[3]; 28 days,7890 ± 4127%
same,Inhibition (%),[3],0.05%
"[PhAc^0-Tyr^1, D-Arg^2, Cpa^6, Ala^8, Har^9, Tyr(Me)^10, His^11, Orn^12, Abu^15, His^20, Orn^21, Nle^27, D-Arg^28, Har^29-Ada^30]hGH-RH(1-29)NH2 [Peptide 11457]",Tumor growth inhibition after 4 weeks (%),[4],85.98%
same,Tumor weights,[5]; end of experiment day 82,76 ± 166 mg
same,Tumor growth from day 1 to day 82 (%),[5]; means±S.E.,740 ± 1220 %
same,Tumor volume on day 82 (mm^3),[5]; means±S.E.,262 ± 103* mm^3
same,Effect on the growth of Panc-1 human pancreatic cancers,[5]; observed for at least 82 days,powerfully inhibited the growth of Panc-1 human pancreatic cancers
"[(Ac-Amc)^0-Tyr^1, D-Arg^2, Cpa^6, Ala^8, Har^9, Tyr(Me)^10, His^11, Orn^12, Abu^15, His^20, Nle^27, D-Arg^28, Har^29-Agm^30]hGH-RH(1-29) [Peptide 11313]",Tumor growth inhibition after 4 weeks (%),[4],78.20%
same,Tumor growth after 4 weeks (%),[3]; 28 days,3091 ± 1215%
same,Inhibition (%),[3],60.84%
same,TU growth (%),[6]; day 0 (baseline),100%
same,TU growth (%),[6]; day 7,147.84%
same,TU inhibition (%),[6]; day 7,31.04%
same,TU growth (%),[6]; day 14,140%
same,TU inhibition (%),[6]; day 14,50.04%
same,TU growth (%),[6]; day 21,196.6%
same,TU inhibition (%),[6]; day 21,63.83%
same,TU growth (%),[6]; day 28,249.65%
same,TU inhibition (%),[6]; day 28,70.35%
same,TU growth (%),[6]; day 35,201.5%
same,TU inhibition (%),[6]; day 35,77.43%
same,TU growth (%),[6]; day 42,274.05%
same,TU inhibition (%),[6]; day 42,77.83%
same,TU growth (%),[6]; day 49,328.63%
same,TU inhibition (%),[6]; day 49,74.16%
"[(Ac-Ada)^0-Tyr^1, D-Arg^2, Cpa^6, Ala^8, Har^9, Tyr(Me)^10, His^11, Abu^15, His^20, Nle^27, D-Arg^28, Har^29]hGH-RH(1-29)NH2 [Peptide 11111]",Tumor growth after 5 weeks (%),[7],1215 ± 243%
same,Tumor growth after 4 weeks (%),[8],2005 ± 541%
Tyr-Ala-Asp-Ala-lle^5-Phe-Thr-Asn-Ser-Tyr^10-Arg-Lys-Val-Leu-Gly^15-Gln-Leu-Ser-Ala-Arg^20-Lys-Leu-Leu-Gln-Asp^25-Ile-Met-Ser-Arg^29-NH2 [GH-RH(1-29)],Potency relative to native GH-RH,pituitary receptors,≥ 50%
